How the values were obtained:
Gal4-RORγ-LBD = target: T1, Gal4-RORγ-LBD (Homo sapiens, UniProt P51449); assay: Gal4-RORγ Luciferase Reporter Assay in HEK-293T Cells; type: cell-based; settings: HEK-293 cells, 2 μM ursolic acid
T1 construct: expressed in transfected cells; host or cells: HEK-293 cells (pcDNA3.1neo plasmid)
T1 sequence (P51449 269-508 limits assumed): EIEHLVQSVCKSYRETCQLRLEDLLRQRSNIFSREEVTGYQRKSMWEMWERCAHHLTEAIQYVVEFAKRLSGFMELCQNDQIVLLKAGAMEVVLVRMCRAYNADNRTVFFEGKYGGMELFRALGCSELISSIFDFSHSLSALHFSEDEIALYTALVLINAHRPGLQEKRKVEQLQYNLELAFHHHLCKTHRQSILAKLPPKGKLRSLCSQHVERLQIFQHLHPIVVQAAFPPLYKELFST
Procedure, shortened: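 Luminescence read-out (One-Glo, 10 min RT) after overnight compound exposure at 37 °C in HEK-293 cells carrying Gal4-RORγ-LBD plus a Gal4-luciferase reporter, in the presence of 2 μM ursolic acid. Max Response is the upper plateau from a 4-parameter logistic fit, normalized to untreated signal = 100.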

RORγ-LBD = target: T2, RORγ-LBD (Homo sapiens, UniProt P51449); assay: RORγ-Ligand Binding Domain (LBD) TR-FRET Assay; type: biochemical;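 on TR-FRET Assay Max Response: 665/615 nm ratio relative to signal without ursolic acid or compound set at 100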
T2 construct: made in house; host or cells: SF9 cells (baculovirus)
T2 sequence (P51449 269-508 limits assumed): T1 sequence (P51449 269-508 limits assumed)
Procedure, shortened: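 This TR-FRET coactivator assay pairs baculovirus-expressed His-RORγ-LBD (~3 nM final) with biotin-SRC1 LXXLL peptide at 200 nM final in pH 7.0 Tris/KCl/EDTA/DTT/BSA buffer.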

SMILES | EC50 (Gal4-RORγ-LBD) | Gal4-RORγ Assay Max Response (Gal4-RORγ-LBD) | EC50 (RORγ-LBD) | TR-FRET Assay Max Response (RORγ-LBD)
CC(C)(C[C@H]1CN(S(=O)(=O)c2cccc(C(F)(F)F)c2)c2cc(-c3cc(C(F)(F)F)ccc3Cl)ccc2O1)C(=O)O [Compound 32AD, (S)-3-(6-(2-chloro-5-(trifluoromethyl)phenyl)-4-((3-(trifluoromethyl)phenyl)sulfonyl)-3,4-dihydro-2H-benzo[b][1,4]oxazin-2-yl)-2,2-dimethylpropanoic acid] | < 500 nM | * (The symbol “*” indicates a value in the range of 25 to 90) | < 500 nM | *** (The symbol “***” indicates a value in the range of greater than 150 to 200)
CC(=O)c1ccc(F)c(-c2ccc3c(c2)N(S(=O)(=O)c2cccc(C(F)(F)F)c2)C[C@H](CC(C)(C)C(=O)O)O3)c1 [Compound 32AE, (S)-3-(6-(5-acetyl-2-fluoro-phenyl)-4-((3-(trifluoromethyl)-phenyl)sulfonyl)-3,4-dihydro-2H-benzo[b][1,4]oxazin-2-yl)-2,2-dimethylpropanoic acid] | < 500 nM | * (The symbol “*” indicates a value in the range of 25 to 90) | < 500 nM | *** (The symbol “***” indicates a value in the range of greater than 150 to 200)
CC(C)(C[C@H]1CN(S(=O)(=O)c2cccc(C(F)(F)F)c2)c2cc(-c3ccccc3C#N)ccc2O1)C(=O)O [Compound 32AF, (S)-3-(6-(2-cyanophenyl)-4-((3-(trifluoromethyl)phenyl)sulfonyl)-3,4-dihydro-2H-benzo[b][1,4]-oxazin-2-yl)-2,2-dimethyl-propanoic acid] | 500 to 5000 nM | ** (The symbol “**” indicates a value in the range of greater than 90 to 150) | < 500 nM | *** (The symbol “***” indicates a value in the range of greater than 150 to 200)
COc1cc(F)cc(-c2ccc3c(c2)N(S(=O)(=O)c2cccc(C(F)(F)F)c2)C[C@H](CC(C)(C)C(=O)O)O3)c1 [Compound 32AG, (S)-3-(6-(3-fluoro-5-methoxy-phenyl)-4-((3-(trifluoromethyl)-phenyl)sulfonyl)-3,4-dihydro-2H-benzo[b][1,4]oxazin-2-yl)-2,2-dimethylpropanoic acid] | < 500 nM | ** (The symbol “**” indicates a value in the range of greater than 90 to 150) | < 500 nM | **** (The symbol “****” indicates a value greater than 200)
COc1cc(Cl)cc(-c2ccc3c(c2)N(S(=O)(=O)c2cccc(C(F)(F)F)c2)C[C@H](CC(C)(C)C(=O)O)O3)c1 [Compound 32AH, (S)-3-(6-(3-chloro-5-methoxy-phenyl)-4-((3-(trifluoromethyl)-phenyl)sulfonyl)-3,4-dihydro-2H-benzo[b][1,4]oxazin-2-yl)-2,2-dimethylpropanoic acid] | < 500 nM | ** (The symbol “**” indicates a value in the range of greater than 90 to 150) | < 500 nM | *** (The symbol “***” indicates a value in the range of greater than 150 to 200)
CC(C)(C[C@H]1CN(S(=O)(=O)c2cccc(C(F)(F)F)c2)c2cc(-c3cc(F)cc(Cl)c3F)ccc2O1)C(=O)O [Compound 32AI, (S)-3-(6-(3-chloro-2,5-difluoro-phenyl)-4-((3-(trifluoromethyl)-phenyl)sulfonyl)-3,4-dihydro-2H-benzo[b][1,4]oxazin-2-yl)-2,2-dimethylpropanoic acid] | < 500 nM | ** (The symbol “**” indicates a value in the range of greater than 90 to 150) | < 500 nM | *** (The symbol “***” indicates a value in the range of greater than 150 to 200)
COc1cc(S(=O)(=O)N2C[C@H](CCC(C)(C)C(=O)O)Oc3ccc(-c4cccc(C(F)(F)F)n4)cc32)ccc1F [Compound 32AJ, (S)-4-(4-((4-fluoro-3-methoxy-phenyl)sulfonyl)-6-(6-(trifluoro-methyl)pyridin-2-yl)-3,4-dihydro-2H-benzo[b][1,4]oxazin-2-yl)-2,2-dimethylbutanoic acid] | < 500 nM | ** (The symbol “**” indicates a value in the range of greater than 90 to 150) | < 500 nM | ** (The symbol “**” indicates a value in the range of greater than 90 to 150)
CC(C)(C[C@H]1CN(S(=O)(=O)c2cccc(C(F)(F)F)c2)c2cc(-c3cccc(C(F)F)n3)ccc2O1)C(=O)O [Compound 32AK, (S)-3-(6-(6-(difluoromethyl)-pyridin-2-yl)-4-((3-(trifluoro-methyl)phenyl)sulfonyl)-3,4-dihydro-2H-benzo[b][1,4]oxazin-2-yl)-2,2-dimethylpropanoic acid] | < 500 nM | * (The symbol “*” indicates a value in the range of 25 to 90) | < 500 nM | ** (The symbol “**” indicates a value in the range of greater than 90 to 150)
CC(C)(C[C@H]1CN(S(=O)(=O)c2cccc(C(F)(F)F)c2)c2cc(-c3cccc(C(F)F)c3)ccc2O1)C(=O)O [Compound 32AL, (S)-3-(6-(3-(difluoromethyl)-phenyl)-4-((3-(trifluoromethyl)-phenyl)sulfonyl)-3,4-dihydro-2H-benzo[b][1,4]oxazin-2-yl)-2,2-dimethylpropanoic acid] | < 500 nM | ** (The symbol “**” indicates a value in the range of greater than 90 to 150) | < 500 nM | ** (The symbol “**” indicates a value in the range of greater than 90 to 150)
CC(C)(C[C@@H]1CN(S(=O)(=O)c2cccc(C(F)(F)F)c2)c2cc(-c3cc(F)cc(Cl)c3F)ccc2O1)C(=O)O [Compound 32AO, (R)-3-(6-(3-chloro-2,5-difluoro-phenyl)-4-((3-(trifluoromethyl)-phenyl)sulfonyl)-3,4-dihydro-2H-benzo[b][1,4]oxazin-2-yl)-2,2-dimethylpropanoic acid] | 500 to 5000 nM | * (The symbol “*” indicates a value in the range of 25 to 90) | < 500 nM | ** (The symbol “**” indicates a value in the range of greater than 90 to 150)
Cc1ccc(Cl)cc1-c1ccc2c(c1)N(S(=O)(=O)c1cccc(C(F)(F)F)c1)C[C@H](CC(C)(C)C(=O)O)O2 [Compound 32AR, (S)-3-(6-(5-chloro-2-methyl-phenyl)-4-((3-(trifluoromethyl)-phenyl)sulfonyl)-3,4-dihydro-2H-benzo[b][1,4]oxazin-2-yl)-2,2-dimethylpropanoic acid] | < 500 nM | ** (The symbol “**” indicates a value in the range of greater than 90 to 150) | < 500 nM | ** (The symbol “**” indicates a value in the range of greater than 90 to 150)
Cc1cc(C)cc(-c2ccc3c(c2)N(S(=O)(=O)c2cccc(C(F)(F)F)c2)C[C@H](CC(C)(C)C(=O)O)O3)c1 [Compound 32AS, (S)-3-(6-(3,5-dimethylphenyl)-4-((3-(trifluoromethyl)phenyl)-sulfonyl)-3,4-dihydro-2H-benzo[b][1,4]oxazin-2-yl)-2,2-dimethylpropanoic acid] | < 500 nM | ** (The symbol “**” indicates a value in the range of greater than 90 to 150) | < 500 nM | ** (The symbol “**” indicates a value in the range of greater than 90 to 150)
Cc1ccc(C)c(-c2ccc3c(c2)N(S(=O)(=O)c2cccc(C(F)(F)F)c2)C[C@H](CC(C)(C)C(=O)O)O3)c1 [Compound 32AT, (S)-3-(6-(2,5-dimethylphenyl)-4-((3-(trifluoromethyl)phenyl)-sulfonyl)-3,4-dihydro-2H-benzo[b][1,4]oxazin-2-yl)-2,2-dimethylpropanoic acid] | < 500 nM | ** (The symbol “**” indicates a value in the range of greater than 90 to 150) | < 500 nM | ** (The symbol “**” indicates a value in the range of greater than 90 to 150)
CC(C)(C[C@H]1CN(S(=O)(=O)c2cccc(C(F)(F)F)c2)c2cc(-c3c(Cl)cccc3Cl)ccc2O1)C(=O)O [Compound 32AU, (S)-3-(6-(2,6-dichlorophenyl)-4-((3-(trifluoromethyl)phenyl)-sulfonyl)-3,4-dihydro-2H-benzo[b][1,4]oxazin-2-yl)-2,2-dimethylpropanoic acid] | < 500 nM | ** (The symbol “**” indicates a value in the range of greater than 90 to 150) | < 500 nM | ** (The symbol “**” indicates a value in the range of greater than 90 to 150)
CC(C)(C[C@H]1CN(S(=O)(=O)c2cccc(C(F)(F)F)c2)c2cc(-c3cc(F)ccc3C(F)(F)F)ccc2O1)C(=O)O [Compound 32AV, (S)-3-(6-(5-fluoro-2-(trifluoro-methyl)phenyl)-4-((3-(trifluoro-methyl)phenyl)sulfonyl)-3,4-dihydro-2H-benzo[b][1,4]oxazin-2-yl)-2,2-dimethylpropanoic acid] | < 500 nM | ** (The symbol “**” indicates a value in the range of greater than 90 to 150) | < 500 nM | ** (The symbol “**” indicates a value in the range of greater than 90 to 150)

Reference: patent US10611740B2, “Aryl dihydro-2H-benzo[b][1,4]oxazine sulfonamide and related compounds for use as agonists of RORγ and the treatment of disease” (Lycera Corporation, priority 2015, dated 2020)
